Results: patent US10087229B2, “Peptide compound” (TAKEDA PHARMACEUTICAL COMPANY LIMITED, priority 2013, dated 2018)
Square brackets hold non-standard residues; d marks the D form. Peptide text beside a SMILES is read from it. * marks the point of attachment. Tyr(Nα-amidino) = N=C(N)N[C@@H](Cc1ccc(O)cc1)C(=O)*; αMeY = C[C@](N)(Cc1ccc(O)cc1)C(=O)O; αMeF = C[C@](N)(Cc1ccccc1)C(=O)O; Aib = CC(C)(N)C(=O)O

Tested on: male C57BL/6J mouse
Assay: 2-days continuous subcutaneous administration test (feeding suppressive activity)
Format: in vivo
Settings: 10 nmol/kg/day, subcutaneous Alzet pump, 2-days cumulative food consumption, control (solvent alone) = 0%
Protocol: 2-Days Continuous Subcutaneous Administration Test
The feeding suppressive activity of a test compound was examined by the method described below.
The test compound was dissolved in a solvent (50% DMSO) so that sustained release would occur at 10 nmol/kg/day, and the solution was filled in the Alzet Pump (DURECT Corporation, model: 1003D). The pump thus filled with the solution to be administered was immersed in physiological saline for priming, and then used. The pump was embedded by the following method. Each male C57BL/6J mouse at 8-9 weeks of age (20-26° C., allowed to take food and water ad libitum; 12-hour bright-12-hour dark cycle) was anesthetized; the skin in the upper back thereof was incised, and the above-mentioned pump was embedded subcutaneously; the incision was sutured. After weighing, this mouse was returned to the rearing cage (reared alone), and given previously weighed food; food consumption as of 2 days after the start of administration was measured. The food consumption was calculated by subtracting the amount of remaining food from the weight of the food given on the day of the start of administration. When the food consumption of a control group receiving administration of the solvent alone was regarded as a suppression rate of 0%, the feeding suppressive activity of each test compound was evaluated on the basis of 2-days cumulative food consumption after the start of administration. The food intake suppression rate (%) of the test compound was defined as (Food consumption of the control group−Food consumption of the test compound-administered group)/Food consumption of the control group×100.

SMILES | Food intake suppression (%)
CC[C@H](C)[C@H](NC(=O)C(C)(C)NC(=O)[C@H](Cc1ccc(O)cc1)NC(=O)[C@H](CC(=O)O)NC(=O)[C@H](CO)NC(=O)[C@@H](NC(=O)[C@](C)(Cc1ccccc1)NC(=O)[C@@H](NC(=O)CNC(=O)[C@H](CCC(=O)O)NC(=O)C(C)(C)NC(=O)[C@@H](N)Cc1ccc(O)cc1)[C@@H](C)O)[C@@H](C)O)C(=O)N[C@@](C)(Cc1ccc(O)cc1)C(=O)N[C@@H](CC(C)C)C(=O)N[C@@H](CC(=O)O)C(=O)N[C@@H](CCCCN)C(=O)N[C@@H](CCC(N)=O)C(=O)N[C@@H](C)C(=O)N[C@@H](CCC(N)=O)C(=O)N[C@@H](C)C(=O)N[C@@H](CCC(=O)O)C(=O)N[C@@H](Cc1ccccc1)C(=O)N[C@H](C(=O)N[C@@H](CCCCN)C(=O)N[C@@H](Cc1c[nH]c2ccccc12)C(=O)N[C@@H](CC(C)C)C(=O)N[C@@H](CC(C)C)C(=O)N[C@@H](CCCCN)C(=O)NCC(=O)NCC(=O)N1CCC[C@H]1C(=O)N[C@@H](CO)C(=O)N[C@@H](CO)C(=O)NCC(=O)N[C@@H](C)C(=O)N1CCC[C@H]1C(=O)N1CCC[C@H]1C(=O)N1CCC[C@H]1C(=O)N[C@@H](CO)C(=O)N[C@@H](CCCCN)C(N)=O)C(C)C [Example 17] (H-Y[Aib]EGT[αMeF]TSDY[Aib]I[αMeY]LDKQAQAEFVKWLLKGGPSSGAPPPSK-NH2) | 55.42
CC[C@H](C)[C@H](NC(=O)C(C)(C)NC(=O)[C@H](Cc1ccc(O)cc1)NC(=O)[C@H](CC(=O)O)NC(=O)[C@H](CO)NC(=O)[C@@H](NC(=O)[C@](C)(Cc1ccccc1)NC(=O)[C@@H](NC(=O)CNC(=O)[C@H](CCC(=O)O)NC(=O)C(C)(C)NC(=O)[C@@H](N)Cc1ccc(O)cc1)[C@@H](C)O)[C@@H](C)O)C(=O)NC(C)(C)C(=O)N[C@@H](CC(C)C)C(=O)N[C@@H](CC(=O)O)C(=O)N[C@@H](CCCCN)C(=O)N[C@@H](CCC(N)=O)C(=O)N[C@@H](C)C(=O)N[C@@H](CCC(N)=O)C(=O)N[C@@H](CO)C(=O)N[C@@H](CCC(=O)O)C(=O)N[C@@H](Cc1ccccc1)C(=O)N[C@H](C(=O)N[C@@H](CCCCN)C(=O)N[C@@H](Cc1c[nH]c2ccccc12)C(=O)N[C@@H](CC(C)C)C(=O)N[C@@H](CC(C)C)C(=O)N[C@@H](CCCCN)C(=O)NCC(=O)NCC(=O)N1CCC[C@H]1C(=O)N[C@@H](CO)C(=O)N[C@@H](CO)C(=O)NCC(=O)N[C@@H](C)C(=O)N1CCC[C@H]1C(=O)N1CCC[C@H]1C(=O)N1CCC[C@H]1C(=O)N[C@@H](CO)C(=O)N[C@@H](CCCCN)C(N)=O)C(C)C [Example 4] (H-Y[Aib]EGT[αMeF]TSDY[Aib]I[Aib]LDKQAQSEFVKWLLKGGPSSGAPPPSK-NH2) | 57.01
CC[C@H](C)[C@H](NC(=O)C(C)(C)NC(=O)[C@H](Cc1ccc(O)cc1)NC(=O)[C@H](CC(=O)O)NC(=O)[C@H](CO)NC(=O)[C@@H](NC(=O)[C@](C)(Cc1ccccc1)NC(=O)[C@@H](NC(=O)CNC(=O)[C@H](CCC(=O)O)NC(=O)C(C)(C)NC(=O)[C@@H](N)Cc1ccc(O)cc1)[C@@H](C)O)[C@@H](C)O)C(=O)NC(C)(C)C(=O)N[C@@H](CC(C)C)C(=O)N[C@@H](CC(=O)O)C(=O)N[C@@H](CCCCN)C(=O)N[C@@H](CCC(N)=O)C(=O)N[C@@H](C)C(=O)N[C@@H](CCC(N)=O)C(=O)N[C@@H](CO)C(=O)N[C@@H](CCC(=O)O)C(=O)N[C@@H](Cc1ccccc1)C(=O)N[C@H](C(=O)N[C@@H](CCCCN)C(=O)N[C@@H](Cc1c[nH]c2ccccc12)C(=O)N[C@@H](CC(C)C)C(=O)N[C@@H](CC(C)C)C(=O)N[C@@H](CCCCN)C(=O)NCC(=O)NCC(=O)N1CCC[C@H]1C(=O)N[C@@H](CO)C(=O)N[C@@H](CO)C(=O)NCC(=O)N[C@@H](C)C(=O)N1CCC[C@H]1C(=O)N1CCC[C@H]1C(=O)N1CCC[C@H]1C(=O)N[C@@H](CO)C(N)=O)C(C)C [Example 8] (H-Y[Aib]EGT[αMeF]TSDY[Aib]I[Aib]LDKQAQSEFVKWLLKGGPSSGAPPPS-NH2) | 48.34
CC[C@H](C)[C@H](NC(=O)C(C)(C)NC(=O)[C@H](Cc1ccc(O)cc1)NC(=O)[C@H](CC(=O)O)NC(=O)[C@H](CO)NC(=O)[C@@H](NC(=O)[C@](C)(Cc1ccccc1)NC(=O)[C@@H](NC(=O)CNC(=O)[C@H](CCC(=O)O)NC(=O)C(C)(C)NC(=O)[C@H](Cc1ccc(O)cc1)NC(=N)N)[C@@H](C)O)[C@@H](C)O)C(=O)NC(C)(C)C(=O)N[C@@H](CC(C)C)C(=O)N[C@@H](CC(=O)O)C(=O)N[C@@H](CCCCN)C(=O)N[C@@H](CCC(N)=O)C(=O)N[C@@H](C)C(=O)N[C@@H](CCC(N)=O)C(=O)N[C@@H](C)C(=O)N[C@@H](CCC(=O)O)C(=O)N[C@@H](Cc1ccccc1)C(=O)N[C@H](C(=O)N[C@@H](CCCCN)C(=O)N[C@@H](Cc1c[nH]c2ccccc12)C(=O)N[C@@H](CC(C)C)C(=O)N[C@@H](CC(C)C)C(=O)N[C@@H](CCCCN)C(=O)NCC(=O)NCC(=O)N1CCC[C@H]1C(=O)N[C@@H](CO)C(=O)N[C@@H](CO)C(=O)NCC(=O)N[C@@H](C)C(=O)N1CCC[C@H]1C(=O)N1CCC[C@H]1C(=O)N1CCC[C@H]1C(=O)N[C@@H](CO)C(=O)N[C@@H](CCCCN)C(N)=O)C(C)C [Example 22] ({Tyr(Nα-amidino)}-[Aib]EGT[αMeF]TSDY[Aib]I[Aib]LDKQAQAEFVKWLLKGGPSSGAPPPSK-NH2) | 35.51
CC[C@H](C)[C@H](NC(=O)[C@H](C)NC(=O)[C@H](Cc1ccc(O)cc1)NC(=O)[C@H](CC(=O)O)NC(=O)[C@H](CO)NC(=O)[C@@H](NC(=O)[C@](C)(Cc1ccccc1)NC(=O)[C@@H](NC(=O)CNC(=O)[C@H](CCC(=O)O)NC(=O)C(C)(C)NC(=O)[C@@H](N)Cc1ccc(O)cc1)[C@@H](C)O)[C@@H](C)O)C(=O)NC(C)(C)C(=O)N[C@@H](CC(C)C)C(=O)N[C@@H](CC(=O)O)C(=O)N[C@@H](CCCCN)C(=O)N[C@@H](CCC(N)=O)C(=O)N[C@@H](C)C(=O)N[C@@H](CCC(N)=O)C(=O)N[C@@H](C)C(=O)N[C@@H](CCC(=O)O)C(=O)N[C@@H](Cc1ccccc1)C(=O)N[C@H](C(=O)N[C@@H](CCCCN)C(=O)N[C@@H](Cc1c[nH]c2ccccc12)C(=O)N[C@@H](CC(C)C)C(=O)N[C@@H](CC(C)C)C(=O)N[C@@H](CCCCN)C(=O)NCC(=O)NCC(=O)N1CCC[C@H]1C(=O)N[C@@H](CO)C(=O)N[C@@H](CO)C(=O)NCC(=O)N[C@@H](C)C(=O)N1CCC[C@H]1C(=O)N1CCC[C@H]1C(=O)N1CCC[C@H]1C(=O)N[C@@H](CO)C(=O)N[C@@H](CCCCN)C(N)=O)C(C)C [Example 1] (H-Y[Aib]EGT[αMeF]TSDYAI[Aib]LDKQAQAEFVKWLLKGGPSSGAPPPSK-NH2) | 42.68
CC(C)C[C@H](NC(=O)[C@H](CC(C)C)NC(=O)[C@H](Cc1c[nH]c2ccccc12)NC(=O)[C@H](CCCCN)NC(=O)[C@@H](NC(=O)[C@H](Cc1ccccc1)NC(=O)[C@H](CCC(=O)O)NC(=O)[C@H](C)NC(=O)[C@H](CCC(N)=O)NC(=O)[C@H](C)NC(=O)[C@H](CCC(N)=O)NC(=O)[C@H](CCCCN)NC(=O)[C@H](CC(=O)O)NC(=O)[C@H](CC(C)C)NC(=O)C(C)(C)NC(=O)[C@H](CCCCN)NC(=O)C(C)(C)NC(=O)[C@H](Cc1ccc(O)cc1)NC(=O)[C@H](CC(=O)O)NC(=O)[C@H](CO)NC(=O)[C@@H](NC(=O)[C@](C)(Cc1ccccc1)NC(=O)[C@@H](NC(=O)CNC(=O)[C@H](CCC(=O)O)NC(=O)C(C)(C)NC(=O)[C@@H](N)Cc1ccc(O)cc1)[C@@H](C)O)[C@@H](C)O)C(C)C)C(=O)N[C@@H](CCCCN)C(=O)NCC(=O)NCC(=O)N1CCC[C@H]1C(=O)N[C@@H](CO)C(=O)N[C@@H](CO)C(=O)NCC(=O)N[C@@H](C)C(=O)N1CCC[C@H]1C(=O)N1CCC[C@H]1C(=O)N1CCC[C@H]1C(=O)N[C@@H](CO)C(=O)N[C@@H](CCCCN)C(N)=O [Example 9] (H-Y[Aib]EGT[αMeF]TSDY[Aib]K[Aib]LDKQAQAEFVKWLLKGGPSSGAPPPSK-NH2) | 45.23
CC(C)C[C@H](NC(=O)[C@H](CC(C)C)NC(=O)[C@H](Cc1c[nH]c2ccccc12)NC(=O)[C@H](CCCCN)NC(=O)[C@@H](NC(=O)[C@H](Cc1ccccc1)NC(=O)[C@H](CCC(=O)O)NC(=O)[C@H](C)NC(=O)[C@H](CCC(N)=O)NC(=O)[C@H](C)NC(=O)[C@H](CCC(N)=O)NC(=O)[C@H](CCCCN)NC(=O)[C@H](CC(=O)O)NC(=O)[C@H](CC(C)C)NC(=O)C(C)(C)NC(=O)[C@H](C)NC(=O)C(C)(C)NC(=O)[C@H](Cc1ccc(O)cc1)NC(=O)[C@H](CC(=O)O)NC(=O)[C@H](CO)NC(=O)[C@@H](NC(=O)[C@](C)(Cc1ccccc1)NC(=O)[C@@H](NC(=O)CNC(=O)[C@H](CCC(=O)O)NC(=O)C(C)(C)NC(=O)[C@@H](N)Cc1ccc(O)cc1)[C@@H](C)O)[C@@H](C)O)C(C)C)C(=O)N[C@@H](CCCCN)C(=O)NCC(=O)NCC(=O)N1CCC[C@H]1C(=O)N[C@@H](CO)C(=O)N[C@@H](CO)C(=O)NCC(=O)N[C@@H](C)C(=O)N1CCC[C@H]1C(=O)N1CCC[C@H]1C(=O)N1CCC[C@H]1C(=O)N[C@@H](CO)C(=O)N[C@@H](CCCCN)C(N)=O [Example 10] (H-Y[Aib]EGT[αMeF]TSDY[Aib]A[Aib]LDKQAQAEFVKWLLKGGPSSGAPPPSK-NH2) | 62.04
